Target: HDM2 protein (Homo sapiens, UniProt Q00987)
Assay: fluorescence polarization screening assay (FP)
Format: binding
Settings: inhibitory concentration that achieves 50% of maximal activity

HDM2 protein, sequence (Q00987 whole entry): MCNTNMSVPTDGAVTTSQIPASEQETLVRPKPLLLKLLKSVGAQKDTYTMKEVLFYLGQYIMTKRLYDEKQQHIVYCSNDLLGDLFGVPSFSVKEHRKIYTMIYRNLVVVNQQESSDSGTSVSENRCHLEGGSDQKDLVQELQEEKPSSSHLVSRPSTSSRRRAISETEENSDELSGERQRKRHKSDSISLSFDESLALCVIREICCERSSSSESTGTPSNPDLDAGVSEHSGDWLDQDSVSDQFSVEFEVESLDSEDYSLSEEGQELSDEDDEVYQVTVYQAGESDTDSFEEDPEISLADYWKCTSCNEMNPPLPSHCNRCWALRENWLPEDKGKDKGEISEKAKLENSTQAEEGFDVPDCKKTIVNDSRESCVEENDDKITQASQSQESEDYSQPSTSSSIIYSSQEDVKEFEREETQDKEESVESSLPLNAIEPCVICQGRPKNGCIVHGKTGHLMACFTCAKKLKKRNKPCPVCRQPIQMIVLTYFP

IC50 [nM] | SMILES
510 | CC(=O)Nc1ccccc1N1CCN(C(=O)C2(Oc3ccc(Br)c(F)c3)CCCN(C(=O)c3cnccc3C(F)(F)F)C2)CC1 (centres unmarked) [AU]
950 | COc1ccccc1N1CCN(C(=O)C2(Oc3ccc(C(F)(F)F)cc3)CCCN(C(=O)c3cnccc3C(F)(F)F)C2)C(C(=O)NCCO)C1 (centres unmarked) [CR]

— patent publication US7884107B2, “Substituted piperidines that increase P53 activity and the uses thereof” (Merck, priority 2006, dated 2011)
